ChEMBL document CHEMBL1240319, “New approaches to molecular cancer therapeutics” (Nat Chem Biol, 2006)
pIC50: −log10 of the molar value.

Assay: Inhibition of HSP90

| Compound | pIC50 |
| --- | --- |
| CCNC(=O)c1n[nH]c(-c2cc(Cl)c(O)cc2O)c1-c1ccc(OC)cc1 | 7.60 |
| CCc1cc(-c2[nH]nc(C)c2-c2ccc3c(c2)OCCO3)c(O)cc1O | 5.05 |
